A value given as a limit tells only on which side of the number the result lay.

Experiment [1] addresses T1, pseudo-kinase domain (JH2, amino-acids 536-812 with 3 surface mutations W659A, W777A, F794H) of human Wild Type JAK2 (Homo sapiens, UniProt O60674, F794H/W659A/W777A).
T1 construct: pseudo-kinase domain (JH2, amino-acids 536-812 with 3 surface mutations W659A, W777A, F794H); His (C); Avi (biotinylated) (C); purchased BPS Bioscience 79463; host or cells: baculovirus expression system
Briefly: JAK2 LanthaScreen JH2-WT Binding Assay. The following applies: JAK2 JH2-WT (0.145 nM), 50 nM Fluorescent JAK2-JH2 Tracer, 1 hour at 25° C.; read-out: JH2 BIND WT. The protocol: Example B. JAK2 LanthaScreen JH2-WT Binding Assay
(§1) JAK2 JH2-WT binding assay utilizes pseudo-kinase domain (JH2, amino-acids 536-812 with 3 surface mutations W659A, W777A, F794H) of human Wild Type JAK2 expressed as C-terminal His-Avi-tagged, biotinylated protein in a baculovirus expression system (BPS Bioscience, Catalog #79463). The assay was conducted in black 384-well polystyrene plates in a final reaction volume of 20 μL. JAK2 JH2-WT (0.145 nM) was incubated with compounds (100 nL serially diluted in DMSO) in the presence of 50 nM Fluorescent JAK2-JH2 Tracer (MedChem Express Catalog #HY-102055) and 0.25 nM Streptavidin-Tb cryptate (Cisbio Part #610SATLB) in assay buffer (50 mM Tris, pH=7.5, 10 mM MgCl2, 0.01% Brij-35, 0.1% BSA, 1 mM EGTA, 5% Glycerol and 5 mM DTT). Non-specific binding was accessed in the presence of 2 mM ATP. After incubation for 1 hour at 25° C., LanthaScreen signals were read on a PHERAstar FS plate reader (BMG LABTECH). Data was analyzed with IDBS XLfit and GraphPad Prism 5.0 software using a four parameter dose response curve to determine IC50 for each compound.

Experiment [2] addresses T2, pseudo-kinase domain (JH2, amino-acids 536-812 with 3 surface mutations W659A, W777A, F794H) of human V617F mutant JAK2 (Homo sapiens, UniProt O60674, F794H/V617F/W659A/W777A).
T2 construct: pseudo-kinase domain (JH2, amino-acids 536-812 with 3 surface mutations W659A, W777A, F794H); His (C); Avi (biotinylated) (C); purchased BPS Bioscience 79498; host or cells: baculovirus expression system
Kind of experiment: JAK2 LanthaScreen JH2-V617F Binding Assay. The following applies: JAK2 JH2-V617F (0.26 nM), 50 nM Fluorescent JAK2-JH2 Tracer, 1 hour at 25° C.; read-out: JH2 BIND V617F. The protocol: Example C. JAK2 LanthaScreen JH2-V617F Binding Assay
as §1, with “JH2-V617F” for “JH2-WT”, “V617F mutant” for “Wild Type”, “#79498).” for “#79463).”, “JH2-V617F (0.26” for “JH2-WT (0.145”
A general note: Time-resolved FRET reads energy transfer from a long-lived donor to a nearby acceptor.

For experiment [3], the target named is T3, catalytic domain (JH1, amino acids 826-1132) of human JAK2 (Homo sapiens, UniProt O60674).
T3 construct: catalytic domain (JH1, amino acids 826-1132) of human JAK2; FLAG (N); purchased Carna Biosciences 08-445-20N; host or cells: baculovirus expression system
Briefly: JAK2 LanthaScreen JH1 Binding Assay. The note with it: JAK2 JH1 (1.5 nM), 50 nM fluorescent JAK2-JH1 tracer, 2 hours at 25° C.; read-out: JH1 BIND. The protocol:
Example A. JAK2 LanthaScreen JH1 Binding Assay
JAK2 JH1 binding assay utilizes catalytic domain (JH1, amino acids 826-1132) of human JAK2 expressed as N-terminal FLAG-tagged, biotinylated protein in a baculovirus expression system (Carna Biosciences, Product #08-445-20N). The assay was conducted in black 384-well polystyrene plates in a final reaction volume of 20 μL. JAK2 JH1 (1.5 nM) was incubated with compounds (100 nL serially diluted in DMSO) in the presence of 50 nM fluorescent JAK2-JH1 tracer and 0.5 nM Streptavidin-Tb cryptate (Cisbio Part #610SATLB) in assay buffer (50 mM Tris, pH=7.5, 10 mM MgCl2, 0.01% Brij-35, 0.1% BSA, 1 mM EGTA, 5% Glycerol and 5 mM DTT). Non-specific binding was accessed in the presence of 2 mM ATP. After incubation for 2 hours at 25° C., LanthaScreen signals were read on a PHERAstar FS plate reader (BMG LABTECH). Data was analyzed with IDBS XLfit and GraphPad Prism 5.0 software using a four parameter dose response curve to determine IC50 for each compound.

T2 sequence (O60674 536-812 V617F/W659A/W777A/F794H): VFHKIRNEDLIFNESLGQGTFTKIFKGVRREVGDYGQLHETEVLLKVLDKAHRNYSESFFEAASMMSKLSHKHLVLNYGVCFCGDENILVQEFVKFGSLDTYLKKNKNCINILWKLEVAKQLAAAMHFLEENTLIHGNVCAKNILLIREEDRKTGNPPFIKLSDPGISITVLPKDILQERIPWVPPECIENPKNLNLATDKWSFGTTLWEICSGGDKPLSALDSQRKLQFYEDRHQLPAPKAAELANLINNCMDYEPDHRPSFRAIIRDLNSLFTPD
T1 sequence (O60674 536-812 W659A/W777A/F794H): as the sequence (O60674 536-812 V617F/W659A/W777A/F794H) above, with F82V counted along it
T3 sequence (O60674 826-1132): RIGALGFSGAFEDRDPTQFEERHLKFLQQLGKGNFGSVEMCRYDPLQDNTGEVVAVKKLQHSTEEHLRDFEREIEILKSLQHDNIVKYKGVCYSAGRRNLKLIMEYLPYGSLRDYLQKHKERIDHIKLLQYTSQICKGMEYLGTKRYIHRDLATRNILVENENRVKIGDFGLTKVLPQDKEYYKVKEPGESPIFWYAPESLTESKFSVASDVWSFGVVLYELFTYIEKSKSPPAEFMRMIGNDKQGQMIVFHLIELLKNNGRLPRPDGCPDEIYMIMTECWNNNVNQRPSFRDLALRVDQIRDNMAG

On to `Cn1c(=O)n(C2CCCC2)c2c3c(-c4ccccc4)c(-c4cnn(CS(C)(=O)=O)c4)[nH]c3ncc21` [Example 29, 1-Cyclopentyl-3-methyl-7-(1-((methylsulfonyl)methyl)-1H-pyrazol-4-yl)-8-phenyl-3,6-dihydroimidazo[4,5-d]pyrrolo[2,3-b]pyridin-2(1H)-one], for which the IC50 in experiment [1] is not above 10 nM; in experiment [2] it was not above 10 nM; in experiment [3], 100 to 500 nM.

On to `Cn1ncc2cc(-c3c(C(O)C4CC4)[nH]c4ncc5c(c34)n(C3CCOCC3)c(=O)n5C)ccc21` (stereo not drawn) [Example 95, 7-(Cyclopropyl(hydroxy)methyl)-3-methyl-8-(1-methyl-1H-indazol-5-yl)-1-(tetrahydro-2H-pyran-4-yl)-3,6-dihydroimidazo[4,5-d]pyrrolo[2,3-b]pyridin-2(1H)-one], for which the IC50 was not above 10 nM in experiment [1], 10 to 100 nM in experiment [2] and more than 1000 nM in experiment [3].

For the compound `Cn1c(=O)n([C@H]2CCCOC2)c2c3c(-c4ccccc4)c(-c4ccc(CN5CCC(S(C)(=O)=O)CC5)cc4)[nH]c3ncc21` [Example 58, (S)-3-Methyl-7-(4-((4-(methylsulfonyl)piperidin-1-yl)methyl)phenyl)-8-phenyl-1-(tetrahydro-2H-pyran-3-yl)-3,6-dihydroimidazo[4,5-d]pyrrolo[2,3-b]pyridin-2(1H)-one], the figures for the IC50 in experiment [1], in experiment [2] and in experiment [3] were not above 10 nM, 10 to 100 nM and 100 to 500 nM, respectively.

Turning to `Cn1ncc2cc(-c3c(-c4ccc(Oc5cccnc5)nc4)[nH]c4ncc5c(c34)n(C3CCCC3)c(=O)n5C)ccc21` [Example 67, 1-Cyclopentyl-3-methyl-8-(1-methyl-1H-indazol-5-yl)-7-(6-(pyridin-3-yloxy)pyridin-3-yl)-3,6-dihydroimidazo[4,5-d]pyrrolo[2,3-b]pyridin-2(1H)-one], the IC50 in experiment [1] is 10 to 100 nM; in experiment [2], 10 to 100 nM; in experiment [3], more than 1000 nM.

As to `Cn1ncc2cc(-c3c(-c4cnn(CC(F)F)c4)[nH]c4ncc5c(c34)n(C3CCCC3)c(=O)n5C)ccc21` [Example 56, 1-Cyclopentyl-7-(1-(2,2-difluoroethyl)-1H-pyrazol-4-yl)-3-methyl-8-(1-methyl-1H-indazol-5-yl)-3,6-dihydroimidazo[4,5-d]pyrrolo[2,3-b]pyridin-2(1H)-one], the values for the IC50 in experiment [1], in experiment [2] and in experiment [3] were not above 10 nM, not above 10 nM and 100 to 500 nM, respectively.

For `CC(C)n1c(=O)n(C)c2cnc3[nH]c(-c4cnn(CC(C)(C)O)c4)c(-c4cc5c(s4)CCNC5)c3c21` [Example 82, 7-(1-(2-Hydroxy-2-methylpropyl)-1H-pyrazol-4-yl)-1-isopropyl-3-methyl-8-(4,5,6,7-tetrahydrothieno[3,2-c]pyridin-2-yl)-3,6-dihydroimidazo[4,5-d]pyrrolo[2,3-b]pyridin-2(1H)-one], the IC50 in experiment [1] was 100 to 500 nM; in experiment [2], 500 to 1000 nM; in experiment [3] it was more than 1000 nM.

Regarding `CC(C)n1c(=O)n(C)c2cnc3[nH]c(-c4cnn(CC(C)(C)O)c4)c(C45CCNCC4C5)c3c21` (stereo not drawn) [Example 88, 8-(3-Azabicyclo[4.1.0]heptan-6-yl)-7-(1-(2-hydroxy-2-methylpropyl)-1H-pyrazol-4-yl)-1-isopropyl-3-methyl-3,6-dihydroimidazo[4,5-d]pyrrolo[2,3-b]pyridin-2(1H)-one], the IC50 in experiment [1] was not above 10 nM; in experiment [2] it was 10 to 100 nM; in experiment [3] it was more than 1000 nM.

For the compound `Cn1ncc2cc(-c3c(C4CC4C#N)[nH]c4ncc5c(c34)n(C3CCCC3)c(=O)n5C)ccc21` (stereo not drawn) [Example 72, 2-(1-Cyclopentyl-3-methyl-8-(1-methyl-1H-indazol-5-yl)-2-oxo-1,2,3,6-tetrahydroimidazo [4,5-d]pyrrolo[2,3-b]pyridin-7-yl)cyclopropane-1-carbonitrile], the IC50 in experiment [1] is not above 10 nM; in experiment [2], 10 to 100 nM; in experiment [3], 500 to 1000 nM.

For `Cn1ncc2cc(-c3c(-c4cccnc4)[nH]c4ncc5c(c34)n(C3CCCC3)c(=O)n5C)ccc21` [Example 61, 1-Cyclopentyl-3-methyl-8-(1-methyl-1H-indazol-5-yl)-7-(pyridin-3-yl)-3,6-dihydroimidazo[4,5-d]pyrrolo[2,3-b]pyridin-2(1H)-one], the results for the IC50 in experiment [1], in experiment [2] and in experiment [3] were not above 10 nM, not above 10 nM and more than 1000 nM, respectively.

On to `CC(C)n1c(=O)n(C)c2cnc3[nH]c(-c4cnn(CC(C)(C)O)c4)c(-c4cc5c(s4)CCN(S(C)(=O)=O)C5)c3c21` [Example 83, 7-(1-(2-Hydroxy-2-methylpropyl)-1H-pyrazol-4-yl)-1-isopropyl-3-methyl-8-(5-(methylsulfonyl)-4,5,6,7-tetrahydrothieno[3,2-c]pyridin-2-yl)-3,6-dihydroimidazo[4,5-d]pyrrolo[2,3-b]pyridin-2(1H)-one], for which the IC50 in experiment [1] is not above 10 nM; in experiment [2] it was 10 to 100 nM; in experiment [3], more than 1000 nM.

For the compound `COc1ccc(-c2c(-c3ccc(CN4CCC(S(C)(=O)=O)CC4)cc3)[nH]c3ncc4c(c23)n(C)c(=O)n4C)cn1` [Example 35, 8-(6-Methoxypyridin-3-yl)-1,3-dimethyl-7-(4-((4-(methylsulfonyl)piperidin-1-yl)methyl)phenyl)-3,6-dihydroimidazo[4,5-d]pyrrolo[2,3-b]pyridin-2(1H)-one], the results for the IC50 in experiment [1], in experiment [2] and in experiment [3] were 100 to 500 nM, 100 to 500 nM and more than 1000 nM, respectively.

On to `COc1ccc(-c2[nH]c3ncc4c(c3c2-c2ccc3c(cnn3C)c2)n(C2CCOCC2)c(=O)n4C)cn1` [Example 63, 7-(6-Methoxypyridin-3-yl)-3-methyl-8-(1-methyl-1H-indazol-5-yl)-1-(tetrahydro-2H-pyran-4-yl)-3,6-dihydroimidazo[4,5-d]pyrrolo[2,3-b]pyridin-2(1H)-one], for which the values for the IC50 in experiment [1], in experiment [2] and in experiment [3] were not above 10 nM, not above 10 nM and more than 1000 nM, respectively.

`CN(CCCS(C)(=O)=O)Cc1ccc(-c2cc3c(ncc4c3n(-c3ccccc3)c(=O)n4C)[nH]2)cc1` [Example 7, 3-Methyl-7-(4-((methyl(3-(methylsulfonyl)propyl)amino)methyl)phenyl)-1-phenyl-3,6-dihydroimidazo [4,5-d]pyrrolo[2,3-b]pyridin-2(1H)-one]: the IC50 in experiment [1] lay in the range of 100 to 500 nM; in experiment [2] it was 100 to 500 nM; in experiment [3] it was 10 to 100 nM.

Source of the values: patent publication US11780840B2 (Incyte Corporation, priority 2020, dated 2023).
